Test results: article PMC8160875 (Molecules, 2021)

Columns and labels:
[1] = system: LO2 cells; experiment: MTT cytotoxicity assay, normal cell line LO2; format: cell-based, human; conditions: for IC50: L02, human normal cell line LO2, MTT, average of three determinations; for Selectivity IC50(LO2)/IC50(A549): ratio IC50(LO2)/IC50(A549)
Excerpt: (§1) Four human tumor cell lines (A549, H1975, NCI-H460, and MCF-7) and human normal cell line LO2 were selected to evaluate the antiproliferative activity of all target compounds in vitro. Olmutinib was used as a positive control. Results are summarized in Table 1, where the values are the average of at least three independent experiments. […] However, the antiproliferative activities of the compounds that were substituted with the anisidine side chain performed better than the cyano group chain.

[2] = system: H1975 cells; experiment: MTT cytotoxicity assay, H1975; format: cell-based; conditions: Homo sapiens, NCI-H1975, H1975 cell line, average of three determinations
Excerpt: as §1

[3] = system: A549 cells; experiment: MTT cytotoxicity assay, A549; format: cell-based; conditions: Homo sapiens, A549 cell line, average of three determinations
Excerpt: as §1

[4] = system: NCI-H460 cells; experiment: MTT cytotoxicity assay, NCI-H460; format: cell-based; conditions: Homo sapiens, NCI-H460 cell line, average of three determinations
Excerpt: as §1

[5] = system: MCF-7 cells; experiment: MTT cytotoxicity assay, MCF-7; format: cell-based; conditions: Homo sapiens, MCF7, MCF-7 cell line, average of three determinations
Excerpt: as §1

[6] = system: HCC827 (EGFR^dell19) cells; conditions: quoted in the introduction; read-out: IC50 against HCC827 (EGFR^dell19) cells; cited from earlier work
[7] = system: A549 (EGFR^WT) cells; conditions: quoted in the introduction; read-out: IC50 against A549 (EGFR^WT) cells; cited from earlier work
[8] = target: PI3Kα (Homo sapiens, UniProt P42336); experiment: Kinase-Glo Luminescent Kinase Assay, PI3Kα; format: biochemical; conditions: average of three determinations
Chain of PI3Kα (P42336 whole entry): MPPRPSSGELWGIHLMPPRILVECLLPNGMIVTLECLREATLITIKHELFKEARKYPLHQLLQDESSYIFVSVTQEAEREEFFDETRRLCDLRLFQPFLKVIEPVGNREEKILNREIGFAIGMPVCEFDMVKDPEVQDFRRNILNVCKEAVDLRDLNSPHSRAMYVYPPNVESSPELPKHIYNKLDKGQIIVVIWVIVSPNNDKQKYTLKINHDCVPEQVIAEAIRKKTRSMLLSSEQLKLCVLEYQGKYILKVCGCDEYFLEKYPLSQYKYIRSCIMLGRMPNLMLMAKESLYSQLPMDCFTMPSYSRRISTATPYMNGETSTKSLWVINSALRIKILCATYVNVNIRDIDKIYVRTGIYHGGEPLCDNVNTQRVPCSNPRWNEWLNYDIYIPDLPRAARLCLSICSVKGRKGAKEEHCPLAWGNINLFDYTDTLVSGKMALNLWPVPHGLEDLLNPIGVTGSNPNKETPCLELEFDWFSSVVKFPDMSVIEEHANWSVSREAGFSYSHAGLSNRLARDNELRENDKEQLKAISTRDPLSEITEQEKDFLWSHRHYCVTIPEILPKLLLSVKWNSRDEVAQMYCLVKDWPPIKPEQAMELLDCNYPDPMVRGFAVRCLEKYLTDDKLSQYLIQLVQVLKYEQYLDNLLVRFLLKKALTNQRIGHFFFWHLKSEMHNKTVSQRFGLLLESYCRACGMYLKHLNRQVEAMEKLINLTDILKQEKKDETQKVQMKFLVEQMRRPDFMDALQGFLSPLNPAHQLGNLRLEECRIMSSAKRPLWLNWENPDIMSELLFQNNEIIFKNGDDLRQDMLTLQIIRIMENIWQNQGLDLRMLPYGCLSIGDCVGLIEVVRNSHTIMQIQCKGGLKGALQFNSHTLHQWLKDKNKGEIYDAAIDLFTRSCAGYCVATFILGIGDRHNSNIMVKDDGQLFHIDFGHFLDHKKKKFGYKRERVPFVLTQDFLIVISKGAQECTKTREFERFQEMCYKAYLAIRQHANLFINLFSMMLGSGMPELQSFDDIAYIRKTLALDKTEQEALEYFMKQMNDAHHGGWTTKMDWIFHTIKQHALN
Chain of PI3Kα (P27986 whole entry partner): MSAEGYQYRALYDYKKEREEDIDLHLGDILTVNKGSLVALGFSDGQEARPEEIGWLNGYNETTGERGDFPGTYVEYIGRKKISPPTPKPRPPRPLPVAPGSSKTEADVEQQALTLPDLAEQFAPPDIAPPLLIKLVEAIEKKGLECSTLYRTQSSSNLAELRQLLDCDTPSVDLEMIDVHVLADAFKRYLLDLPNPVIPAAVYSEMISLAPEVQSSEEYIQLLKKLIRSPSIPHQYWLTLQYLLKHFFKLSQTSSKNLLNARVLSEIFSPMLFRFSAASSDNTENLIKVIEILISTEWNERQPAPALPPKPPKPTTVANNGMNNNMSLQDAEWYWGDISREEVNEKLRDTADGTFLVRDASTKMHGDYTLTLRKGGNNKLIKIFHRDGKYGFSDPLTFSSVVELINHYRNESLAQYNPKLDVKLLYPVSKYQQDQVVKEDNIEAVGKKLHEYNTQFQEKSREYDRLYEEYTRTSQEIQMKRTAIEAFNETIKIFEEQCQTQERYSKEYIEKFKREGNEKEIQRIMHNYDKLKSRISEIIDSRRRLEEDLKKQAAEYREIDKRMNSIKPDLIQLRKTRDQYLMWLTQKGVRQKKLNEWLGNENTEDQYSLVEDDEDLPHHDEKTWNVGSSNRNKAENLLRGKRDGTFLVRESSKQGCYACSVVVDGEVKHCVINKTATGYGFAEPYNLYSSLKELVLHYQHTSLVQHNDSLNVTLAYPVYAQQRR
Description: Compounds H7 and H10 had excellent antiproliferative activity and were further screened out for kinase inhibition testing. We evaluated compounds H7 and H10 with EGFR^T790M/L858R kinases and PI3Kα kinases.
The specific operation was carried out according to our previous research.

[9] = system: H1975 (EGFR^L858R/T790M) cells; conditions: quoted in the introduction; read-out: IC50 against H1975 (EGFR^L858R/T790M) cells; cited from earlier work
[10] = quoted in the introduction; cited from earlier work
[11] = target: EGFR^T790M/L858R (Homo sapiens, UniProt P00533, L858R/T790M); experiment: Kinase-Glo Luminescent Kinase Assay, EGFR T790M/L858R; format: biochemical; conditions: average of three determinations
Chain of EGFR^T790M/L858R (P00533 25-1210 T790M/L858R): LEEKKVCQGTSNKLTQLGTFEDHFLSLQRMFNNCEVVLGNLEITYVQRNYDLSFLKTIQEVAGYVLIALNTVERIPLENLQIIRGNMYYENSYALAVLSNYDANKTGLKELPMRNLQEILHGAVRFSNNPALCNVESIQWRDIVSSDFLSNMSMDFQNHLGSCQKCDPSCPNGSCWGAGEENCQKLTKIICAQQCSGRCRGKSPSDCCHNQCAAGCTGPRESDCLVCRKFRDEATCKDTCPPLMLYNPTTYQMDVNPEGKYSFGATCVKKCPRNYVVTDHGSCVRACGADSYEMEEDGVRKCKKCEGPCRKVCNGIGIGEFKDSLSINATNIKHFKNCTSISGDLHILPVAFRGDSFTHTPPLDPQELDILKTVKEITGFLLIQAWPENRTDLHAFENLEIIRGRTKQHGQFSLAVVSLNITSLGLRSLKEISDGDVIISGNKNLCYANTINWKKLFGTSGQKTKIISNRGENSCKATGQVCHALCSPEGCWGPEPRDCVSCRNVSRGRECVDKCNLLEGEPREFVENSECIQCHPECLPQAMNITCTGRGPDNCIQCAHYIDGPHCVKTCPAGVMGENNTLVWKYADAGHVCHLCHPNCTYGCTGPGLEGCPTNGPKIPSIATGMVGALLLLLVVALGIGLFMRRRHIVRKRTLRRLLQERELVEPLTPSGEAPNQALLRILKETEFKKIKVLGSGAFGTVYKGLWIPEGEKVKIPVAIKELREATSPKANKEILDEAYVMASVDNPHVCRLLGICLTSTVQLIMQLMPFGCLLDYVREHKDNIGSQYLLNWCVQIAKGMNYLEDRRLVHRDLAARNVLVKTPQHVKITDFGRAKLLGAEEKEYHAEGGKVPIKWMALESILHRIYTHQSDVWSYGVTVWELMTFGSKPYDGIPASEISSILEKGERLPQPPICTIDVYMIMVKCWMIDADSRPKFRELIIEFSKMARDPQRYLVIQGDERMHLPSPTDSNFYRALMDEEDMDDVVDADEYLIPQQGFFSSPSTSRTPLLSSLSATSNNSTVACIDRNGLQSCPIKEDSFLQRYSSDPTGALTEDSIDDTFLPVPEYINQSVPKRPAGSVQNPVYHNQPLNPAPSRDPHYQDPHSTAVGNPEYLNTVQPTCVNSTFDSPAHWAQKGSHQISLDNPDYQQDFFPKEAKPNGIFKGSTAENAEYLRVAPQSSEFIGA

| Compound | melting point | IC50 [8] | IC50 [11] | IC50 [1] | Selectivity IC50(LO2)/IC50(A549) [1] | IC50 [2] | IC50 [3] | IC50 [4] | IC50 [5] | IC50 [6] | IC50 [7] | IC50 [9] | toxic side effects [10] | Selectivity (A549 vs LO2) relative to that of olmutinib ([1]; fold of the selectivity of the lead compound olmutinib) |
| --- | --- | --- | --- | --- | --- | --- | --- | --- | --- | --- | --- | --- | --- | --- |
| C=CC(=O)Nc1cccc(Oc2cc(-c3cccs3)nc(Nc3cccc(C#N)c3)n2)c1 [Compound H1, N-(3-((2-((3-cyanophenyl)amino)-6-(thiophen-2-yl)pyrimidin-4-yl)oxy)phenyl)acrylamide] | – | – | – | > 100 µM | >22.57 | 9.64 ± 1.01 µM | 4.43 ± 0.5 µM | 13.1 ± 1.17 µM | 19 ± 1.71 µM | – | – | – | – | – |
| CC(C)=CC(=O)Nc1cccc(Oc2nc(-c3ccc(CN(C)C)s3)nc(N3CCOCC3)n2)c1 [Compound H11, N-(3-((4-(5-((dimethylamino)methyl)thiophen-2-yl)-6-morpholino-1,3,5-triazin-2-yl)oxy)phenyl)-3-methylbut-2-enamide] | – | – | – | > 100 µM | >7.39 | 5.57 ± 1.53 µM | 13.5 ± 1.13 µM | 19.7 ± 1.16 µM | 25.8 ± 1.31 µM | – | – | – | – | – |
| C/C=C/C(=O)Nc1cccc(Oc2cc(-c3cccs3)nc(Nc3cccc(C#N)c3)n2)c1 [Compound H2, (E)-N-(3-((2-((3-cyanophenyl)amino)-6-(thiophen-2-yl)pyrimidin-4-yl)oxy)phenyl)but-2-enamide] | 201.2 to 205.9 °C | – | – | 87.9 ± 1.67 µM | 8.38 | 12.5 ± 1.09 µM | 10.5 ± 1.17 µM | 16.4 ± 0.98 µM | 14.6 ± 1.19 µM | – | – | – | – | – |
| CC(C)=CC(=O)Nc1cccc(Oc2cc(-c3cccs3)nc(Nc3cccc(C#N)c3)n2)c1 [Compound H3, N-(3-((2-((3-cyanophenyl)amino)-6-(thiophen-2-yl)pyrimidin-4-yl)oxy)phenyl)-3-methylbut-2-enamide] | 215.5 to 218.7 °C | – | – | > 100 µM | >3.61 | 21.9 ± 1.33 µM | 27.7 ± 1.24 µM | 25.8 ± 1.38 µM | 35.8 ± 1.64 µM | – | – | – | – | – |
| CCN(CC)Cc1ccc(-c2nc(Oc3cccc(NC(=O)/C=C/C(C)C)c3)nc(N3CCOCC3)n2)s1 [Compound H16, (E)-N-(3-((4-(5-((diethylamino)methyl)thiophen-2-yl)-6-morpholino-1,3,5-triazin-2-yl)oxy)phenyl)-4-methylpent-2-enamide] | – | – | – | > 100 µM | >2.77 | 15.6 ± 2.55 µM | 36.1 ± 1.61 µM | 30.3 ± 1.68 µM | 51.8 ± 1.27 µM | – | – | – | – | – |
| C=CC(=O)Nc1cccc(Oc2nc(-c3ccc(CN(C)C)s3)nc(N3CCOCC3)n2)c1 [Compound H9, N-(3-((4-(5-((dimethylamino)methyl)thiophen-2-yl)-6-morpholino-1,3,5-triazin-2-yl)oxy)phenyl)acrylamide] | – | – | – | > 100 µM | – | 12.8 ± 1.25 µM | 23.5 ± 1.43 µM | 28.2 ± 1.78 µM | 53.9 ± 1.73 µM | – | – | – | – | – |
| C/C=C/C(=O)Nc1cccc(Oc2nc(-c3ccc(CN(CC)CC)s3)nc(N3CCOCC3)n2)c1 [Compound H14, (E)-N-(3-((4-(5-((diethylamino)methyl)thiophen-2-yl)-6-morpholino-1,3,5-triazin-2-yl)oxy)phenyl)but-2-enamide] | – | – | – | > 100 µM | – | 17.8 ± 1.34 µM | 20.6 ± 2.3 µM | 46.2 ± 1.43 µM | 41.6 ± 1.61 µM | – | – | – | – | – |
| C=C(C)C(=O)Nc1cccc(Oc2nc(-c3ccc(CN(CC)CC)s3)nc(N3CCOCC3)n2)c1 [Compound H13, N-(3-((4-(5-((diethylamino)methyl)thiophen-2-yl)-6-morpholino-1,3,5-triazin-2-yl)oxy)phenyl)methacrylamide] | – | – | – | > 100 µM | – | 21.5 ± 1.21 µM | 23.4 ± 1.89 µM | 54.5 ± 2.86 µM | 32.5 ± 1.73 µM | – | – | – | – | – |
| CCC/C=C/C(=O)Nc1cccc(Oc2cc(-c3cccs3)nc(Nc3cccc(C#N)c3)n2)c1 [Compound H4, (E)-N-(3-((2-((3-cyanophenyl)amino)-6-(thiophen-2-yl)pyrimidin-4-yl)oxy)phenyl)hex-2-enamide] | 209.6 to 211.4 °C | – | – | > 100 µM | >2.70 | 25.1 ± 1.3 µM | 37.1 ± 1.19 µM | 23.4 ± 1.49 µM | 27 ± 1.63 µM | – | – | – | – | – |

Continued, in another order:

| melting point | IC50 [8] | IC50 [11] | Compound | IC50 [1] | Selectivity IC50(LO2)/IC50(A549) [1] | IC50 [2] | IC50 [3] | IC50 [4] | IC50 [5] | IC50 [6] | IC50 [7] | IC50 [9] | toxic side effects [10] | Selectivity (A549 vs LO2) relative to that of olmutinib ([1]; fold of the selectivity of the lead compound olmutinib) |
| --- | --- | --- | --- | --- | --- | --- | --- | --- | --- | --- | --- | --- | --- | --- |
| 222.9 to 226.8 °C | – | – | C=C(F)C(=O)Nc1cccc(Oc2cc(-c3cccs3)nc(Nc3cccc(C#N)c3)n2)c1 [Compound H5, N-(3-((2-((3-cyanophenyl)amino)-6-(thiophen-2-yl)pyrimidin-4-yl)oxy)phenyl)-2-fluoroacrylamide] | > 100 µM | – | > 100 µM | > 100 µM | > 100 µM | > 100 µM | – | – | – | – | – |
| 217.9 to 219.1 °C | – | – | COc1cccc(Nc2nc(Oc3cccc(NC(=O)/C=C/C(C)C)c3)cc(-c3cccs3)n2)c1 [Compound H8, (E)-N-(3-((2-((3-methoxyphenyl)amino)-6-(thiophen-2-yl)pyrimidin-4-yl)oxy)phenyl)-4-methylpent-2-enamide] | > 100 µM | >5.26 | 21.5 ± 1.21 µM | 19 ± 1.34 µM | 24.1 ± 1.28 µM | 49.1 ± 2.13 µM | – | – | – | – | – |
| – | > 10 µM | – | C=CC(=O)Nc1cccc(Oc2nc(Nc3ccc(N4CCN(C)CC4)cc3)nc3ccsc23)c1 [Olmutinib, olmutinib, reference compound] | 25.8 ± 1.31 µM | – | 0.52 ± 0.1 µM | 4.29 ± 0.21 µM | 5.29 ± 0.59 µM | 26.9 ± 0.93 µM | 0.0092 µM | 0.225 µM | 0.01 µM | palmoplantar keratoderma and diarrhea | – |
| 199.7 to 201.3 °C | – | – | CC(C)/C=C/C(=O)Nc1cccc(Oc2nc(-c3ccc(CN(C)C)s3)nc(N3CCOCC3)n2)c1 [Compound H12, (E)-N-(3-((4-(5-((dimethylamino)methyl)thiophen-2-yl)-6-morpholino-1,3,5-triazin-2-yl)oxy)phenyl)-4-methylpent-2-enamide] | > 100 µM | >4.57 | 13.6 ± 1.94 µM | 21.9 ± 1.54 µM | 23.8 ± 2.05 µM | 64 ± 1.8 µM | – | – | – | – | – |
| 223.1 to 225.4 °C | – | – | CC(C)/C=C/C(=O)Nc1cccc(Oc2cc(-c3cccs3)nc(Nc3cccc(C#N)c3)n2)c1 [Compound H6, (E)-N-(3-((2-((3-cyanophenyl)amino)-6-(thiophen-2-yl)pyrimidin-4-yl)oxy)phenyl)-4-methylpent-2-enamide] | > 100 µM | >6.43 | 11.9 ± 1.11 µM | 15.6 ± 0.81 µM | 18.1 ± 0.71 µM | 17.7 ± 1.01 µM | – | – | – | – | – |
| 215.2 to 217.1 °C | – | – | CCN(CC)Cc1ccc(-c2nc(Oc3cccc(NC(=O)C=C(C)C)c3)nc(N3CCOCC3)n2)s1 [Compound H15, N-(3-((4-(5-((diethylamino)methyl)thiophen-2-yl)-6-morpholino-1,3,5-triazin-2-yl)oxy)phenyl)-3-methylbut-2-enamide] | > 100 µM | >4.68 | 19.5 ± 1.55 µM | 21.4 ± 1.58 µM | 62.4 ± 2.94 µM | 38.5 ± 1.78 µM | – | – | – | – | – |
| 231.7 to 234.3 °C | > 10 µM | 0.63 µM | C/C=C/C(=O)Nc1cccc(Oc2cc(-c3cccs3)nc(Nc3cccc(OC)c3)n2)c1 [Compound H7, (E)-N-(3-((2-((3-methoxyphenyl)amino)-6-(thiophen-2-yl)pyrimidin-4-yl)oxy)phenyl)but-2-enamide] | > 100 µM | >22.88 | 4.59 ± 0.46 µM | 4.37 ± 0.5 µM | 13.5 ± 0.52 µM | 19.2 ± 1.12 µM | – | – | – | – | – |
| 202.4 to 203.7 °C | 8.56 µM | 0.25 µM | C/C=C/C(=O)Nc1cccc(Oc2nc(-c3ccc(CN(C)C)s3)nc(N3CCOCC3)n2)c1 [Compound H10, (E)-N-(3-((4-(5-((dimethylamino)methyl)thiophen-2-yl)-6-morpholino-1,3,5-triazin-2-yl)oxy)phenyl)but-2-enamide] | > 100 µM | >29.76 | 1.16 ± 1.53 µM | 3.36 ± 1.59 µM | 10.7 ± 2.02 µM | 13.1 ± 1.36 µM | – | – | – | – | about 5 times |
